Where “and” joins values, the source holds several entries; their conditions need not be identical. Equal values may be shown once. Read-outs that look alike come from different tables or passages of the source.
Tested on: LTB0016 intracellular amastigotes in J774.1 macrophages
Experiment: Macrophage-amastigote model, reference strain
Type: cell-based, Leishmania amazonensis
Details: for Growth (%) Exp1 Infección / Growth (%) Exp1 A/MØ / Growth (%) Exp1 A/100MØ / Growth (%) Exp1 %Control / Growth (%) Exp2 Infección / Growth (%) Exp2 A/MØ / Growth (%) Exp2 A/100MØ / Growth (%) Exp2 %Control / Growth (%) Exp3 Infección / Growth (%) Exp3 A/MØ / Growth (%) Exp3 A/100MØ / Growth (%) Exp3 %Control / Average A/100MØ: 72 h; for Growth (%) Exp1 Infección / Growth (%) Exp2 Infección / Growth (%) Exp3 Infección: % infected macrophages; for Growth (%) Exp1 A/MØ / Growth (%) Exp2 A/MØ / Growth (%) Exp3 A/MØ: amastigotes per infected macrophage; for Growth (%) Exp1 A/100MØ / Growth (%) Exp2 A/100MØ / Growth (%) Exp3 A/100MØ: infection index; for Growth (%) Exp1 %Control / Growth (%) Exp2 %Control / Growth (%) Exp3 %Control: infection index vs DMSO; for Average A/100MØ: average of Exp1-3
Experimental: We used a previously described methodology, with some modifications. Macrophage monolayers, grown in RMPIc medium, for 3 days, were detached from the bottom of the culture chamber, by physical treatment (low temperature and light strokes). Obtained macrophages were seeded in flat-bottom 96-well culture plates, at a density of 2 × 10^5 cells mL^−1 (40,000 macrophages/well), in a final volume of 200 µL. Plates were incubated for 2 h, and the supernatant was discarded to remove non-adhered macrophages. Medium was replaced with stationary-phase promastigotes suspended in 200 µL of RPMIc (2 × 10^6 parasites mL^−1, 400,000 parasites/well), at a macrophage: parasite ratio 1:10 [40]. The plates were incubated for 4 h. Afterwards the medium was replaced with fresh RPMIc and increasing concentrations of compounds or drugs tested were applied, in volumes of 2 µL, according to the different treatment groups. Plates were kept for 72 h, at 37 °C and 5% CO2. The medium was discarded and the wells were washed twice with PBS. Next, a Giemsa staining was performed in situ. It consisted of adding 200 µL of methanol/well, incubating for 5 min, discarding the fixative, and letting it dry at room temperature. Later, the Giemsa solution (10% in PBS w/v, 200 µL/well) was added, incubated for 10 min, and washed with PBS, allowing it to dry. Finally, the bottom of the plates was detached by percussion and the circular bottoms (wells) were fixed to slides with Permount synthetic resin, for later evaluation (Alcazar W., manuscript in preparation). Cell counting was performed with a 100× immersion objective. A minimum of 200 random macrophages were examined. The percentage of infected macrophages (% infection) and the average number of amastigotes present in infected macrophages (amastigotes) were determined. […] The infection rate represents the number of intracellular amastigotes per 100 macrophages evaluated. Additionally, the GI50 for the decrease in the infection rate was calculated. At least three independent experiments were performed. The effect of amphotericin-B (AmB) [Sigma-Aldrich, (St. Louis, MO, USA)] was included as positive control of the assay.

C=C(C)C1CCC2(C=NO)CCC3(C)C(CCC4C5(C)CCC(=NO)C(C)(C)C5CCC43C)C12 (centres unmarked) [Compound 18]
SI (CC50/GI50) LTB0016 (J774.1 CC50 / intracellular amastigote GI50, Table 2): 240.45 | Growth (%) Exp1 Infección (LTB0016, 0.10 µM): 52.43% | Growth (%) Exp1 A/MØ (LTB0016, 0.10 µM): 3.54 | Growth (%) Exp1 A/100MØ (LTB0016, 0.10 µM): 185.69 | Growth (%) Exp1 %Control (LTB0016, 0.10 µM): 70.78% | Growth (%) Exp2 Infección (LTB0016, 0.10 µM): 57.50% | Growth (%) Exp2 A/MØ (LTB0016, 0.10 µM): 3.36 | Growth (%) Exp2 A/100MØ (LTB0016, 0.10 µM): 193.20 | Growth (%) Exp2 %Control (LTB0016, 0.10 µM): 90.86% | Growth (%) Exp3 Infección (LTB0016, 0.10 µM): 41.73% | Growth (%) Exp3 A/MØ (LTB0016, 0.10 µM): 2.66 | Growth (%) Exp3 A/100MØ (LTB0016, 0.10 µM): 111.00 | Growth (%) Exp3 %Control (LTB0016, 0.10 µM): 62.52% | Average A/100MØ (LTB0016, 0.10 µM): 163.30 | Growth (%) Exp1 Infección (LTB0016, 0.50 µM): 36.24% | Growth (%) Exp1 A/MØ (LTB0016, 0.50 µM): 3.35 | Growth (%) Exp1 A/100MØ (LTB0016, 0.50 µM): 121.51 | Growth (%) Exp1 %Control (LTB0016, 0.50 µM): 46.32% | Growth (%) Exp2 Infección (LTB0016, 0.50 µM): 32.38% | Growth (%) Exp2 A/MØ (LTB0016, 0.50 µM): 2.08 | Growth (%) Exp2 A/100MØ (LTB0016, 0.50 µM): 67.35 | Growth (%) Exp2 %Control (LTB0016, 0.50 µM): 31.68% | Growth (%) Exp3 Infección (LTB0016, 0.50 µM): 25.00% | Growth (%) Exp3 A/MØ (LTB0016, 0.50 µM): 2.29 | Growth (%) Exp3 A/100MØ (LTB0016, 0.50 µM): 57.25 | Growth (%) Exp3 %Control (LTB0016, 0.50 µM): 32.25% | Average A/100MØ (LTB0016, 0.50 µM): 82.04 | Growth (%) Exp1 Infección (LTB0016, 1.00 µM): 10.68% | Growth (%) Exp1 A/MØ (LTB0016, 1.00 µM): 3.15 | Growth (%) Exp1 A/100MØ (LTB0016, 1.00 µM): 33.68 | Growth (%) Exp1 %Control (LTB0016, 1.00 µM): 12.84% | Growth (%) Exp2 Infección (LTB0016, 1.00 µM): 24.45% | Growth (%) Exp2 A/MØ (LTB0016, 1.00 µM): 1.29 | Growth (%) Exp2 A/100MØ (LTB0016, 1.00 µM): 31.54 | Growth (%) Exp2 %Control (LTB0016, 1.00 µM): 14.83% | Growth (%) Exp3 Infección (LTB0016, 1.00 µM): 17.20% | Growth (%) Exp3 A/MØ (LTB0016, 1.00 µM): 3.00 | Growth (%) Exp3 A/100MØ (LTB0016, 1.00 µM): 51.60 | Growth (%) Exp3 %Control (LTB0016, 1.00 µM): 29.06% | Average A/100MØ (LTB0016, 1.00 µM): 38.94 | Growth (%) Exp1 Infección (LTB0016, 5.00 µM): 9.37% | Growth (%) Exp1 A/MØ (LTB0016, 5.00 µM): 1.83 | Growth (%) Exp1 A/100MØ (LTB0016, 5.00 µM): 17.18 | Growth (%) Exp1 %Control (LTB0016, 5.00 µM): 6.55% | Growth (%) Exp2 Infección (LTB0016, 5.00 µM): 17.07% | Growth (%) Exp2 A/MØ (LTB0016, 5.00 µM): 1.50 | Growth (%) Exp2 A/100MØ (LTB0016, 5.00 µM): 25.61 | Growth (%) Exp2 %Control (LTB0016, 5.00 µM): 12.04% | Growth (%) Exp3 Infección (LTB0016, 5.00 µM): 10.71% | Growth (%) Exp3 A/MØ (LTB0016, 5.00 µM): 2.75 | Growth (%) Exp3 A/100MØ (LTB0016, 5.00 µM): 29.45 | Growth (%) Exp3 %Control (LTB0016, 5.00 µM): 16.59% | Average A/100MØ (LTB0016, 5.00 µM): 24.08 | Growth (%) Exp1 Infección (LTB0016, 10.00 µM): 5.40% | Growth (%) Exp1 A/MØ (LTB0016, 10.00 µM): 1.67 | Growth (%) Exp1 A/100MØ (LTB0016, 10.00 µM): 9.00 | Growth (%) Exp1 %Control (LTB0016, 10.00 µM): 3.43% | Growth (%) Exp2 Infección (LTB0016, 10.00 µM): 11.23% | Growth (%) Exp2 A/MØ (LTB0016, 10.00 µM): 1.20 | Growth (%) Exp2 A/100MØ (LTB0016, 10.00 µM): 13.48 | Growth (%) Exp2 %Control (LTB0016, 10.00 µM): 6.34% | Growth (%) Exp3 Infección (LTB0016, 10.00 µM): 3.48% | Growth (%) Exp3 A/MØ (LTB0016, 10.00 µM): 3.00 | Growth (%) Exp3 A/100MØ (LTB0016, 10.00 µM): 10.44 | Growth (%) Exp3 %Control (LTB0016, 10.00 µM): 5.88% | Average A/100MØ (LTB0016, 10.00 µM): 10.97 | GI50 (LTB0016 intracellular amastigotes, GraphPad regression, read-out: GI50 (µM) Experiment 1 Regresion): 0.29 µM | GI50 (LTB0016 intracellular amastigotes, GraphPad regression, read-out: GI50 (µM) Experiment 2 Regresion): 0.34 µM | GI50 (LTB0016 intracellular amastigotes, GraphPad regression, read-out: GI50 (µM) Experiment 3 Regresion): 0.2 µM | GI50 (intracellular amastigotes, Supplementary Materials II, read-out: GI50 (µM) LTB0016, mean of three experiments): 0.278 µM and 0.28 µM | GI50 (summary bound for reference strain LTB0016 and patient isolates, read-out: GI50): < 1 µM

Reference: PMC7913927, “Leishmanicidal Activity of Betulin Derivatives in Leishmania amazonensis; Effect on Plasma and Mitochondrial Membrane Potential, and Macrophage Nitric Oxide and Superoxide Production” (Microorganisms, 2021)
